The values below come from patent US20250177382A1, “NEK7 INHIBITORS” (Halia Therapeutics, Inc., priority 2021, published 2025).

As a reminder, the IC50 is the point on the concentration scale where inhibition reaches its midpoint.

Experiment [1] deals with IL-1β release in THP-1 cells. Nature of the experiment: IL-1β release assay. As to conditions: Homo sapiens; PMA-differentiated THP-1 cells, LPS + nigericin, cleaved IL-1β by JESS. The experiment is classed as cell-based. The method, then:
Approximately 1.5 million THP-1 cells were plated in each well of a 6-well TC plate and incubated with 40 nM PMA in RPMI (10% FBS, 1% Penstrep) for 24 hours. The media was then removed and cells were rested in RPMI (10% FBS, 1% Penstrep) for 24 hours after which time the media was removed and cells were pre-treated for 2 hours with various concentrations of compounds of interest (typically serial 3-fold dilution in RPMI+5% FBS, concentrations ranging from 1 μM to 0.5 nM) in RPMI (5% FBS). The media was again removed and cells were incubated with 250 ng/mL LPS and compounds of interest (concentrations as above) in RMPI (5% FBS) for 2 hours. The media was removed for a last time and cells were incubated with 20 μM nigericin and compounds of interest (concentrations as above) in Opti-MEM for 30 minutes. Cell media was then collected and the amount of cleaved IL-1β was determined using a JESS instrument (Protein Simple) and standard protocols. Cleaved Il-1β antibody was obtained from Cell Signaling (catalogue #83186S) and was used at 1:20 dilution in antibody diluent 2. Protein Simple 1× anti-Rabbit HRP secondary antibody was used along with Protein Simple luminol and peroxide for chemiluminescent detection. Primary antibody incubation time was increased from 30 minutes to 60 minutes.
(§1) Representative compounds were tested for inhibitory activity against NEK7 and IL-1β release according to the procedures described above.

The target of experiment [2] is T1, full-length recombinant human NEK7 (Homo sapiens, UniProt Q8TDX7).
T1 construct: full-length recombinant human NEK7; GST (N); purchased SignalChem N09-10G; host or cells: Sf9 insect cells (baculovirus)
T1 sequence (Q8TDX7 whole entry): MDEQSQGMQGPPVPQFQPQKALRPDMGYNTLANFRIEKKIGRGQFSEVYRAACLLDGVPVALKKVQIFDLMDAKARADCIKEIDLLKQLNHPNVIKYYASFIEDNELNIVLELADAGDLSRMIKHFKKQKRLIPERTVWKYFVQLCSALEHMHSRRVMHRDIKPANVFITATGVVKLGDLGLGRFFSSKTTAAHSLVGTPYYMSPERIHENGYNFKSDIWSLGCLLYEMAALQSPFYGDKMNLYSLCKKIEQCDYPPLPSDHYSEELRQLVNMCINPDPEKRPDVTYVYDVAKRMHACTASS
Nature of the experiment: NEK7 enzymatic assay. The experiment is classed as biochemical. As to conditions: casein substrate, [32P]-ATP, radiometric P81 filter assay. The protocol: Casein substrate (from bovine milk, hydrolyzed and partially dephosphorylated mixture of α, β, and κ caseins, obtained from Sigma Aldrich, catalogue #C4765, diluted in distilled water to a final concentration of 1 mg/mL, assay concentration 20 μM) and full-length recombinant human NEK7 (expressed by baculovirus in Sf9 insect cells using a N-terminal GST tag, obtained from SignalChem, catalogue #N09-10G, […], assay concentration 70 nM) were mixed in assay buffer (20 mM Hepes pH 7.5, 10 mM MgCl2, 1 mM EGTA, 0.02% Brij35, 0.02 mg/mL BSA, 0.1 mM […], 2 mM DTT, 1% DMSO). Compounds of interest (in DMSO, serial 3-fold dilution from 10 μM to 0.5 nM) or control (1% DMSO) were dispensed into the kinase reaction mixture by Acoustic technology (Echo550; nanoliter range). After incubation at room temperature for 20 minutes, the kinase reaction was initiated by addition of [^32P]-ATP (Specific activity 10 μUCi/μl) and the mixture was incubated at room temperature for 2 hours. The reaction was then stopped by spotting the reaction mixture on strips of phosphocellulose P81 paper. Following washing, the radioactivity of the P81 paper was measured and kinase activity data were expressed as the percent remaining kinase activity in test samples compared to vehicle (dimethyl sulfoxide) reactions. IC50 values and curve fits were obtained using Prism (GraphPad Software).
as §1

For `CN1CCN(Cc2ccc(NC(=O)Nc3ccc(Oc4ccnc5[nH]cc(Cl)c45)cc3F)cc2C(F)(F)F)CC1` [Example I-1, 1-(4-((3-chloro-1H-pyrrolo[2,3-b]pyridin-4-yl)oxy)-2-fluorophenyl)-3-(4-((4-methylpiperazin-1-yl)methyl)-3-(trifluoromethyl)phenyl)urea], the IC50 in experiment [1] is < 50 nM.
On the same count and under the same terms, under `CN1CCN(Cc2ccc(NC(=O)Nc3ccc(Oc4ccnc5[nH]cc(C6CC6)c45)cc3F)cc2C(F)(F)F)CC1` [Example I-7, 1-(4-((3-cyclopropyl-1H-pyrrolo[2,3-b]pyridin-4-yl)oxy)-2-fluorophenyl)-3-(4-((4-methylpiperazin-1-yl)methyl)-3-(trifluoromethyl)phenyl)urea] stands 50 to 250 nM.
Still for that read-out and setting: the value for `Cc1[nH]c2nccc(Oc3ccc(NC(=O)Nc4ccc(CN5CCN(C)CC5)c(C(F)(F)F)c4)c(F)c3)c2c1Cl` [Example I-11, 1-(4-((3-chloro-2-methyl-1H-pyrrolo[2,3-b]pyridin-4-yl)oxy)-2-fluorophenyl)-3-(4-((4-methylpiperazin-1-yl)methyl)-3-(trifluoromethyl)phenyl)urea] was < 50 nM.
In the case of `CN1CCN(Cc2ccc(NC(=O)Nc3ccc(Oc4ccnc5[nH]cc(Cl)c45)cn3)cc2C(F)(F)F)CC1` [Example I-24, 1-(5-((3-chloro-1H-pyrrolo[2,3-b]pyridin-4-yl)oxy)pyridin-2-yl)-3-(4-((4-methylpiperazin-1-yl)methyl)-3-(trifluoromethyl)phenyl)urea], the values for the IC50 in experiment [2] and in experiment [1] were < 200 nM and < 50 nM, respectively.
Regarding `Cc1c[nH]c2nccc(Oc3ccc(NC(=O)Nc4ccc(CN5CCN(C)CC5)c(C(F)(F)F)c4)c(F)c3)c12` [Example I-36, 1-(2-fluoro-4-((3-methyl-1H-pyrrolo[2,3-b]pyridin-4-yl)oxy)phenyl)-3-(4-((4-methylpiperazin-1-yl)methyl)-3-(trifluoromethyl)phenyl)urea], the values for the 50% inhibitory concentration (IC50) in experiment [2] and in experiment [1] were 200 to 500 nM and 50 to 250 nM, respectively.
On to `CCN1CCN(Cc2ccc(NC(=O)Nc3ccc(Oc4ccnc5[nH]cc(Cl)c45)cc3F)cc2C(F)(F)F)CC1` [Example I-37, 1-(4-((3-chloro-1H-pyrrolo[2,3-b]pyridin-4-yl)oxy)-2-fluorophenyl)-3-(4-((4-ethylpiperazin-1-yl)methyl)-3-(trifluoromethyl)phenyl)urea], for which the 50% inhibitory concentration (IC50) in experiment [1] is < 50 nM.
With `CN1CCC(Oc2ccc(NC(=O)Nc3ccc(Oc4ccnc5[nH]cc(Cl)c45)cc3F)cc2C(F)(F)F)CC1` [Example I-39, 1-(4-((3-chloro-1H-pyrrolo[2,3-b]pyridin-4-yl)oxy)-2-fluorophenyl)-3-(4-((1-methylpiperidin-4-yl)oxy)-3-(trifluoromethyl)phenyl)urea], the IC50 fell in the range of 200 to 500 nM in experiment [2] and 50 to 250 nM in experiment [1].
Turning to `CN1CCC(=Cc2ccc(NC(=O)Nc3ccc(Oc4ccnc5[nH]cc(Cl)c45)cc3F)cc2C(F)(F)F)CC1` [Example I-40, 1-(4-((3-chloro-1H-pyrrolo[2,3-b]pyridin-4-yl)oxy)-2-fluorophenyl)-3-(4-((1-methylpiperidin-4-ylidene)methyl)-3-(trifluoromethyl)phenyl)urea], the 50% inhibitory concentration (IC50) in experiment [2] was 500 to 2000 nM; in experiment [1], < 50 nM.
On to `CN1CCC(Oc2ncc(NC(=O)Nc3ccc(Oc4ccnc5[nH]cc(Cl)c45)cc3F)cc2C(F)(F)F)CC1` [Example I-58, 1-(4-((3-chloro-1H-pyrrolo[2,3-b]pyridin-4-yl)oxy)-2-fluorophenyl)-3-(6-((1-methylpiperidin-4-yl)oxy)-5-(trifluoromethyl)pyridin-3-yl)urea], for which the figures for the IC50 in experiment [2] and in experiment [1] were 200 to 500 nM and 50 to 250 nM, respectively.
As to `CC(=O)N1CCC(Oc2ccc(NC(=O)Nc3ccc(Oc4ccnc5[nH]cc(Cl)c45)cc3F)cc2C(F)(F)F)CC1` [Example I-59, 1-(4-((1-acetylpiperidin-4-yl)oxy)-3-(trifluoromethyl)phenyl)-3-(4-((3-chloro-1H-pyrrolo[2,3-b]pyridin-4-yl)oxy)-2-fluorophenyl)urea], the values for the half-maximal inhibitory concentration (IC50) in experiment [2] and in experiment [1] were > 2000 nM and 250 to 1000 nM, respectively.
